PubChem BioAssay AID720589 (Broad Institute, 2013)
Activity calls are given as the source filed them.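 How the source made its calls: active means fitted curve drops below -35% activity at a concentration within twice the top valid tested dose; inconclusive means no clear call, values can overlap the other calls; inactive means signal rising instead of falling, among other cases.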

Experiment: HepG2 hepatoma cell cytotoxicity, dose response, cytotoxicity control, CellTiter-Glo luminescence, cherry-pick, set 3 (AID 720589)
Conditions: HepG2 viability, ATP luminescence (CellTiter-Glo), 72 h; at 0.9 µM; stronger effect = lower value; 0% = untreated, negative = ATP loss
In the case of `Brc1ccc(CSc2nnc(-c3ccco3)o2)cc1`, the max activity is reported as -28.4% (inactive). With `CC(C)(C)c1ccc(Oc2ccc(N)cn2)cc1` the max activity was 14% (inactive). With `S=c1[nH]nc(-c2cc(-c3ccccc3)n[nH]2)n1/N=C/C(Br)=C/c1ccccc1` the max activity was -17.9% (inactive). For `CCc1ccc2oc(C(=O)N3CCN(c4ccccc4OC)CC3)cc(=O)c2c1`, the max activity was -16.2% (inactive).

Same assay, conditions: HepG2 viability, ATP luminescence (CellTiter-Glo), 72 h; at 2.85 µM; stronger effect = lower value
For `O=C(Nc1ccc(OC(=O)N2CCCCC2)cc1)N1CCOCC1`, the max activity was -13.3% (inactive).

Same assay, conditions: HepG2 viability, ATP luminescence (CellTiter-Glo), 72 h; at 2.85 µM; stronger effect = lower value; 0% = untreated, negative = ATP loss
With `C(=N\Nc1ccc2ccccc2n1)/c1ccc2c(c1)OCO2` the max activity was -36.5% (inactive). For `CN(C)c1ccc2c(c1)[C@@H]1C[C@@H](CC(=O)NCc3ccc(Oc4ccccc4)cc3)O[C@H](CO)[C@@H]1O2`, the max activity was -31.7% (inactive). For `COc1ccc(C(=O)NCCNc2nc3cc(C)cc(C)c3cc2C#N)c(OC)c1`, the max activity was -25.6% (inactive). For `C/C=C/c1ccc(C2[C@@H]3CN(C(=O)Cc4ccccc4)C[C@H]2N3)cc1` (stereo partly drawn), the max activity was -29.1% (inactive). For `CCCc1nc2ccc(NC(=O)c3cccs3)cc2c(=O)n1Cc1ccccc1Cl`, the max activity was -32.5% (inactive). For `C[C@@H]1CN([C@@H](C)CO)C(=O)Cc2cc(NC(=O)Nc3ccc(C(F)(F)F)cc3)ccc2O[C@@H]1CN(C)Cc1ccc(C(=O)Nc2ccccc2N)cc1`, the max activity was -33% (inactive). With `CCCCCCCCCCCCCCCCCCNc1ccn(C2OC(COP(=O)(O)OCC3OC(n4cc(F)c(=O)[nH]c4=O)CC3O)C(O)C2O)c(=O)n1` (stereo not drawn) the max activity was -36% (inactive). With `CN(C)c1ccc(N=Nc2ccccc2Br)cc1` the max activity was -41.2% (inactive).

Same assay, conditions: HepG2 viability, ATP luminescence (CellTiter-Glo), 72 h; at 8 µM; stronger effect = lower value; 0% = untreated, negative = ATP loss
In the case of `COc1cc(/C=N/NS(=O)(=O)c2ccc(C)cc2)ccc1OCc1cccc(C(=O)O)c1`, the max activity is reported as -15.9% (inactive). In the case of `COc1ccc(C2c3cc4c(cc3OC(NNC(N)=O)C2C)OCO4)cc1` (stereo not drawn), the max activity is reported as -29.8% (inactive). In the case of `CCc1ccc(S(=O)(=O)c2ccc(-n3nc(C)cc3N)cc2)cc1`, the max activity is reported as 24% (inactive). With `CCc1ccc(/C=C2\SC(=S)N(CCCC(=O)NC3=NCCS3)C2=O)cc1` the max activity was -19% (inactive). In the case of `O=C(COC(=O)c1ccc[nH]c1=O)Nc1ccc(N2CCCCC2)cc1`, the max activity is reported as -25.3% (inactive).

Same assay, conditions: HepG2 viability, ATP luminescence (CellTiter-Glo), 72 h; at 21 µM; stronger effect = lower value; 0% = untreated, negative = ATP loss
For `COc1ccc(CN(C)C[C@H]2Oc3ccc(NC(=O)CCCCCC(=O)Nc4ccccc4N)cc3CC(=O)N([C@H](C)CO)C[C@H]2C)cc1`, the max activity was -31.8% (inactive).

Same assay, conditions: HepG2 viability, ATP luminescence (CellTiter-Glo), 72 h; at 23.5 µM; stronger effect = lower value; 0% = untreated, negative = ATP loss
In the case of `C[C@H]1CN([C@@H](C)CO)C(=O)Cc2cc(NC(=O)CCCCCC(=O)Nc3ccccc3N)ccc2O[C@H]1CN(C)Cc1ccc(Cl)c(Cl)c1`, the max activity is reported as -29.2% (inactive).

Same assay, conditions: HepG2 viability, ATP luminescence (CellTiter-Glo), 72 h; at 26 µM; stronger effect = lower value; 0% = untreated, negative = ATP loss
With `COc1ccc(CCC(C)NCC2CCCCC2)cc1` (stereo not drawn) the max activity was -15.7% (inactive). With `Oc1c(Cl)cc(Cl)c2cccnc12` the max activity was -31.8% (inactive). With `O=C1C(=O)N(CCS(=O)(=O)c2ccccc2)c2ccccc21` the max activity was 24.1% (inactive). With `COC(=O)COc1ccc(-c2nccc(-c3ccccn3)n2)cc1` the max activity was 18.7% (inactive). For `COc1cc(OC)cc(-c2cc3nc(C)c(CCC(=O)O)c(C)n3n2)c1`, the max activity was -9.81% (inactive). In the case of `CC1(CCc2ccccc2)NC(=O)N(CC(=O)N2CC(=O)Nc3ccccc32)C1=O` (stereo not drawn), the max activity is reported as -19.7% (inactive). With `O=c1[nH]c(/C=C2\C=Nc3ccccc32)c(O)n1Cc1ccccc1F` the max activity was -19.8% (inactive). For `O=C(O)c1ccc2cc(-c3ccccc3)[nH]c2c1`, the max activity was -25% (inactive). In the case of `COc1ccc(S(=O)(=O)N=Nc2c(O)[nH]c3ccccc23)cc1`, the max activity is reported as -27.4% (inactive). For `CCNC(=O)[C@@H]1[C@@H](CO)[C@@H]2Cn3c(ccc(C4=CCCCC4)c3=O)[C@H]1N2CC`, the max activity was -22.3% (inactive). With `COc1ccc(C=C2CCc3ccccc3C2=O)cc1` the max activity was -23.4% (inactive). In the case of `O=C(CCCN1C(=O)S/C(=C\c2ccccc2)C1=O)NNC(=O)c1ccccc1O`, the max activity is reported as -21.8% (inactive). With `O=C(NCc1cccnc1)C1Cc2c(-c3ccc(Cl)cc3)ccnc2O1` (stereo not drawn) the max activity was -18.3% (inactive). With `CN1C(=O)c2cc(NC(=O)c3ccc(Cl)cc3)ccc2OC[C@@H]2O[C@@H](CC(=O)NCc3cccc(F)c3)CC[C@H]21` the max activity was -22.6% (inactive). With `Nc1sc(-c2ccccc2)cc1-c1n[nH]c(=S)n1C1CCCCC1` the max activity was -25.2% (inactive). With `O=c1cc(-c2ccccc2)oc2ccc3ccccc3c12` the max activity was -21.9% (inactive). With `CN1c2ccc(-c3ccc(C#N)cc3)cc2[C@H]2[C@H](CCN2S(=O)(=O)c2cccc(F)c2)[C@@H]1CO` the max activity was 33.3% (inactive). For `O=C(O)c1ccc(N/N=C/c2c[nH]c3ccccc23)cc1`, the max activity was -17.3% (inactive).
